How the values were obtained:
[1] = target: T1, Dipeptidyl Peptidase I (DP I, Cathepsin C) (Rattus norvegicus, UniProt P80067); experiment: Cross reacting enzymes: dipeptidyl peptidase I; assay type: biochemical; conditions: concentration range 1*10^−5 M-1*10^−7 M
T1 construct: purchased Qiagen GmbH, Hilden, Germany
T1 sequence (P80067 25-462): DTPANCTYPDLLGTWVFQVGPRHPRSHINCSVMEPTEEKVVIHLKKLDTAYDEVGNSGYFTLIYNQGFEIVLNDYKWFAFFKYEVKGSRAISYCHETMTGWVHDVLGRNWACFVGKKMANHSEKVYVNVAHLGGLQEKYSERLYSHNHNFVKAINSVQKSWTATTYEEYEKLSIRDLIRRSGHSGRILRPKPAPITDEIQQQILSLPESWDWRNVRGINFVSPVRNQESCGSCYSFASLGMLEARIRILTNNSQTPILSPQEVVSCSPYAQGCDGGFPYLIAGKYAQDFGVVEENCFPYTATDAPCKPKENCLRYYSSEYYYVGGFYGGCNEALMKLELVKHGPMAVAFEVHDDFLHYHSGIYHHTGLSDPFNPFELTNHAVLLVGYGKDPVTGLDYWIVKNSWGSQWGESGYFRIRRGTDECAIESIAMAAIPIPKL
Protocol: DP I or cathepsin C is a lysosomal cysteine protease which cleaves off dipeptides from the N-terminus of their substrates (Gutman, H. R. & Fruton, J. S., 1948, J. Biol: Chem., 174, 851-858). It is classified as a cysteine protease. The enzyme used was purchased from Qiagen (Qiagen GmbH, Hilden, Germany). In order to get a fully active enzyme, the enzyme was diluted 1000fold in MES buffer pH5.6 (40 mM MES, 4 mM DTT, 4 mM KCl, 2 mM EDTA, 0.015% Brij) and pre-incubated for 30 min at 30° C.
50 μl glutaminyl pyrrolidine or glutaminyl thiazolidine in a concentration range of 1*10^−5 M-1*10^−7 M were admixed with 110 μl buffer-enzyme-mixture. The assay mixture was pre-incubated at 30° C. for 15 min. After pre-incubation, 100 μl histidylseryl-β-nitroaniline (2*10^-5M) was added and measurement of yellow color development due to β-nitroaniline release was performed at 30° C. and […] for 10 min., using a plate reader (HTS7000 plus, Applied Biosystems, Weiterstadt, Germany).
The IC50-values were calculated using Graphit 4.0.15 (Erithacus Software, Ltd., UK).

[2] = target: T2, recombinant human prolyl oligopeptidase (POP) (Homo sapiens, UniProt P48147); experiment: Cross reacting enzymes: prolyl oligopeptidase; assay type: biochemical; conditions: concentration range 1*10^−4 M-5*10^−8 M
T2 construct: made in house; host or cells: E. coli
T2 sequence (P48147 1-710): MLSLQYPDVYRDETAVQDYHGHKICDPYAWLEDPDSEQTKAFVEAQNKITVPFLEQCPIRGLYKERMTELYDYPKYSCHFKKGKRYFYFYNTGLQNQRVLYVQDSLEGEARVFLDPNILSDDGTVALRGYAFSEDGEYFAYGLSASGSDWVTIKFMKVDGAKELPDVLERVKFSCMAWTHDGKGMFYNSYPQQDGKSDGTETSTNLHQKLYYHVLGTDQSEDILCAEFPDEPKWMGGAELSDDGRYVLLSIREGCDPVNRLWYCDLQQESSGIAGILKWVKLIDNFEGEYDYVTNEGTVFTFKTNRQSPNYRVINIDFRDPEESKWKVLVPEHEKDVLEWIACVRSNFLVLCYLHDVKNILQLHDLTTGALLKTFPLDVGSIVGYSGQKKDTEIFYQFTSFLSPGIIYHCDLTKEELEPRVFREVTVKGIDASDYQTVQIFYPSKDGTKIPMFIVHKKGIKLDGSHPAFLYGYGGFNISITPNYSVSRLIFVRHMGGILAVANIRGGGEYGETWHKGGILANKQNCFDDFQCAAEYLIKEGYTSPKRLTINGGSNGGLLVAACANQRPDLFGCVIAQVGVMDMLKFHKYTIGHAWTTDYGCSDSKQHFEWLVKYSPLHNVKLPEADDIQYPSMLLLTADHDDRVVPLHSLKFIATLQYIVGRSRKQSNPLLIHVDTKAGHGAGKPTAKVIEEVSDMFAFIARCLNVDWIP
Protocol: Substrates are peptides with a molecular weight up to 3000 Da. The enzyme used was a recombinant human prolyl oligopeptidase. Recombinant expression was performed in E. coli under standard conditions as described elsewhere in the state of the art.
100 μl glutaminyl pyrrolidine or glutaminyl thiazolidine in an concentration range of 1*10^−4 M-5*10^−8 M were admixed with 100 μl μl buffer solution (40 mM HEPES, pH7.6, 0.015% Brij, 1 mM DTT) and 20 μl POP solution. The assay mixture was pre-incubated at 30° C. for 15 min. After pre-incubation, 50 μl glycylprolylprolyl-4-nitroaniline solution (0.29 mM) was added and measurement of yellow color development due to 4-nitroaniline release was performed at 30° C. and λ=405 nm for 10 min using a plate reader (sunrise, Tecan, Crailsheim, Germany). The IC50-values were calculated using Graphit 4.0.15 (Erithacus Software, Ltd., UK).

## NC(=O)CCC(N)C(=O)N1CCCC1 (centres unmarked) [Gln-Pyrr, glutaminyl pyrrolidine]
[1]
  inhibition of the DP I enzyme activity: No inhibition
[2]
  inhibition of POP activity: No inhibition
